Measured values reported in US5739117A, “Agent for improving cerebral metabolism including glucose ester derivatives” (Fujimoto Pharmaceutical Co., Ltd., priority 1993, dated 1998).

What was measured:
[1] = Kinetic changes in radioactivities in the blood and the cerebral tissue after intravenous injection; type: in vivo, mice (ddy strain); details: mice, i.v. tail vein
Procedure: Normal male mice of the ddy strain at 6 weeks of age were injected intravenously through tail vein with 0.05 ml of […] ^18 F in DMSO solution.
Kinetic changes in radioactivities in the blood and the cerebral tissue of the mice injected with ^18 F-AFDG.

[2] = Intra-cerebral and blood concentrations of ^18 F-AFDG and its metabolites after intravenous injection; type: in vivo; details: mice
Procedure: Mice were given an intravenous injection of 0.05 ml solution of 0.5 mM ^18 F-AFD in DMSO.

| Compound | time up to which levels of radioactivity in the cerebral tissue increased ([1]; 0.05 ml in DMSO, FIG. 1) [min] | blood radioactivity levels ([1]; 0.05 ml in DMSO, following administration) | radioactivity in the cerebral tissue after administration ([1]; 0.05 ml in DMSO, immediately after administration) | radioactivity in the cerebral tissue compared with blood ([1]; at 10 minutes of administration and thereafter) | proportion that reached the cerebral tissue ([2]; i.v., 0.05 ml of 0.5 mM in DMSO, within 0.5 minute following administration) | extent metabolized into ^18 F-FDG-6-phosphate ([2]; i.v., cerebral tissue, at 180 minutes) | time of emergence of intra-cerebral metabolites ([2]; i.v. ^18 F-AFDG, 0.5 mM in DMSO, cerebral tissue) [min] | concentration in the cerebral tissue over time ([2]; i.v. ^18 F-AFDG, after 0.5 minute, FIG. 3) | proportion among ^18 F-AFDG and metabolites in the cerebral tissue ([2]; i.v. ^18 F-AFDG, at 5, 60 and 180 minutes, compared with blood, FIGS. 4 and 5) |
| --- | --- | --- | --- | --- | --- | --- | --- | --- | --- |
| CC(=O)OC[C@H]1OC(OC(C)=O)[C@H]([18F])[C@@H](OC(C)=O)[C@@H]1OC(C)=O (stereo partly drawn) [^18 F-AFDG, 1,3,4,6-tetra-O-acetyl-2-^18 F-D-glucose] | 30 | decreased consistently following administration | could be detected in the cerebral tissue immediately after administration | higher in the cerebral tissue than in the blood | approximately 40% | the entire ^18 F-AFDG was found to be metabolized into ^18 F-FDG-6-phosphate |  |  |  |
| O=P(O)(O)OC[C@H]1OC(O)[C@H]([18F])[C@@H](O)[C@@H]1O (stereo partly drawn) [^18 F-FDG-6-phosphate] |  |  |  |  |  |  | ≤ 0.5 | raised markedly | highest proportion in the cerebral tissue |
